What all share (assay type): cell-based
Common to all, as to details: compounds at 50 nM and 500 nM

The target of one test is T1, CK1α (Homo sapiens, UniProt P48729+Q96SW2).
T1 construct: The supernatant was aspirated as the extracted total cell protein; endogenous in cells; host or cells: human peripheral blood mononuclear cells (hPBMCs)
Briefly: Western blot degradation of CK1α in hPBMCs (24 h). A digest of the protocol:
(§1)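 Western blot densitometry after 24 h treatment of human PBMCs (1×10^6 cells/mL) with 50 nM or 500 nM compound. Remaining target (%) = band intensity over internal-control band, normalized to DMSO; degradation = 1 − remaining; DC50 is the concentration giving half the DMSO band signal.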

The target of the next test is T2, IKZF1 (Homo sapiens, UniProt Q13422+Q96SW2).
T2 construct: The supernatant was aspirated as the extracted total cell protein; endogenous in cells; host or cells: human peripheral blood mononuclear cells (hPBMCs)
Kind of test: Western blot degradation of IKZF1 in hPBMCs (24 h). A digest of the protocol:
as §1

The target of another test is T3, IKZF3 (Homo sapiens, UniProt Q96SW2+Q9UKT9).
T3 construct: The supernatant was aspirated as the extracted total cell protein; endogenous in cells; host or cells: human peripheral blood mononuclear cells (hPBMCs)
Briefly: Western blot degradation of IKZF3 in hPBMCs (24 h). In a few lines: as §1

The next test concerns the target T4, WEE1 (Homo sapiens, UniProt P30291+Q96SW2).
T4 construct: The supernatant was aspirated as the extracted total cell protein; endogenous in cells; host or cells: human peripheral blood mononuclear cells (hPBMCs)
Kind of test: Western blot degradation of WEE1 in hPBMCs (24 h). In a few lines:
as §1
On the technique in general: Immunoblotting shows a protein as a band on a membrane.

The next test has as its target T5, IKZF2 (Homo sapiens, UniProt Q96SW2+Q9UKS7).
T5 construct: The supernatant was aspirated as the extracted total cell protein; endogenous in cells; host or cells: human peripheral blood mononuclear cells (hPBMCs)
Kind of test: Western blot degradation of IKZF2 in hPBMCs (24 h). A digest of the protocol: as §1

The target of the next test is T6, GSPT1 (Homo sapiens, UniProt P15170+Q96SW2).
T6 construct: The supernatant was aspirated as the extracted total cell protein; endogenous in cells; host or cells: human peripheral blood mononuclear cells (hPBMCs)
Briefly: Western blot degradation of GSPT1 in hPBMCs (24 h). In a few lines: as §1

T4 sequence (P30291 whole entry): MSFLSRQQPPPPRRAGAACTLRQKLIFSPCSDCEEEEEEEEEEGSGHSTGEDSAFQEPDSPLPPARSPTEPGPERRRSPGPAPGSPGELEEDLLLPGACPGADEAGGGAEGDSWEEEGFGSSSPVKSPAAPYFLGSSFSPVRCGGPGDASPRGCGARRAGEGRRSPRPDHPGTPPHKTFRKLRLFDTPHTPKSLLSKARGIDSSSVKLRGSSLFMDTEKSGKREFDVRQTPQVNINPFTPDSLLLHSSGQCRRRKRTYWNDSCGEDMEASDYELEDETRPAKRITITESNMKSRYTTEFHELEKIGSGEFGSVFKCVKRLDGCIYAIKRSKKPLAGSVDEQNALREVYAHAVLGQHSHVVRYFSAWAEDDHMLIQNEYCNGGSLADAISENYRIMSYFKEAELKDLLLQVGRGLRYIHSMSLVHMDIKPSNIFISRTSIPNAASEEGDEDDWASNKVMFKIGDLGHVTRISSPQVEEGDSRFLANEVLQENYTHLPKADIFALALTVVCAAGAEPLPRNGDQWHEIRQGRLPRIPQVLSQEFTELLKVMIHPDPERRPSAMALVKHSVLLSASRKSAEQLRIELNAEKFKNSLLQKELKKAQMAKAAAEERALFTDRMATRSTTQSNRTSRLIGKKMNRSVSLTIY
T4 sequence (Q96SW2 whole entry): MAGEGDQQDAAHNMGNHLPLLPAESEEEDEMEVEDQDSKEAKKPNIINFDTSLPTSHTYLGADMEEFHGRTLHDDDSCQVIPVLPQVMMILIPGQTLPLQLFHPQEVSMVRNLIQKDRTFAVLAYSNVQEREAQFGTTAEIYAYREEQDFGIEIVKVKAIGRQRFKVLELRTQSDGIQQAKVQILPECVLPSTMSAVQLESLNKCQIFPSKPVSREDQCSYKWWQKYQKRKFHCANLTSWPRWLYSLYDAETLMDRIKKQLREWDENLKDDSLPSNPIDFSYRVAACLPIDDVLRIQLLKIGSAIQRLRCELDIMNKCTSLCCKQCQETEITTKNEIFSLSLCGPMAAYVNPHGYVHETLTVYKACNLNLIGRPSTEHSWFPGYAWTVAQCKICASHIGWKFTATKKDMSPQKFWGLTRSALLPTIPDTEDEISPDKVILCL
T4 sequence (Q16531 whole entry partner): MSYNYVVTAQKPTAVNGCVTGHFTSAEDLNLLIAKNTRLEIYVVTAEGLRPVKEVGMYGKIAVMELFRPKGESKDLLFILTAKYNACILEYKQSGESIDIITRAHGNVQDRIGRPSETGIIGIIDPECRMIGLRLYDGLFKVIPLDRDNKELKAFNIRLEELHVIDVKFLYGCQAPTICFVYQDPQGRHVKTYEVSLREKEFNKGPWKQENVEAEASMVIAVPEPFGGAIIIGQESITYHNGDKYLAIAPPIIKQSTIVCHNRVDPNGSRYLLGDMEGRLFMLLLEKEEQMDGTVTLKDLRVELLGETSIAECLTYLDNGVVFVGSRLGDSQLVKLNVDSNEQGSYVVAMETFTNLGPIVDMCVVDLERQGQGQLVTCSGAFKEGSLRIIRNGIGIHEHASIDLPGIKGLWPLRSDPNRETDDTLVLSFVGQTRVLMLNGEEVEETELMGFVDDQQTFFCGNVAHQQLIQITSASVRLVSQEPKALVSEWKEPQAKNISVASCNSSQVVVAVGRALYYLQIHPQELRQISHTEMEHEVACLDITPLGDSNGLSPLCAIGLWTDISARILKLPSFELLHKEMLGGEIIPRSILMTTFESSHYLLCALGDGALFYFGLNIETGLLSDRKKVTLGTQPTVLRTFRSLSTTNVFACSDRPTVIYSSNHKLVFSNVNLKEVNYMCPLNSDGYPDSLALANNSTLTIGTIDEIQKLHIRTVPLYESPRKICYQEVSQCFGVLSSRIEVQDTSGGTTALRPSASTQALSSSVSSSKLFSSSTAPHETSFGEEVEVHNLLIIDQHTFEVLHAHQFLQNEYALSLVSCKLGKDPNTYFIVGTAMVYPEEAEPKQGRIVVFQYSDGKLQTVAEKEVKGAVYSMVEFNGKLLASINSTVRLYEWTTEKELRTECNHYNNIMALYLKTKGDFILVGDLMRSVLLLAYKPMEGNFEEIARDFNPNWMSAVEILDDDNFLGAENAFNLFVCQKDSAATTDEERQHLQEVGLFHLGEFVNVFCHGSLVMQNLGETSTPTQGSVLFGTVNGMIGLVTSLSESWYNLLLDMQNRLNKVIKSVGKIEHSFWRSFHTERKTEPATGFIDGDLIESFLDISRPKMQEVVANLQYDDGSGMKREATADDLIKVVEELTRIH
T1 sequence (P48729 whole entry): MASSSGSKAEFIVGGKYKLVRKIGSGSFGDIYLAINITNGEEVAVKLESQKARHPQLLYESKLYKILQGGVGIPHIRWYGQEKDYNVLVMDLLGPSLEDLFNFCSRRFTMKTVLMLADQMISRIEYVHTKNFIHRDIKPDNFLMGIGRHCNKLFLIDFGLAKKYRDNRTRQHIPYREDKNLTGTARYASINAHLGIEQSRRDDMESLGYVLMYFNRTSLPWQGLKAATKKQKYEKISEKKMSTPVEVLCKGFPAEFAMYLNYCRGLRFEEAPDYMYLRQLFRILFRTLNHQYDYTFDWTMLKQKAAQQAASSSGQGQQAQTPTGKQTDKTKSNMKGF
T1 sequence (Q96SW2 whole entry): as the sequence (Q96SW2 whole entry) above
T1 sequence (Q16531 whole entry partner): as the sequence (Q16531 whole entry partner) above
T2 sequence (Q13422 whole entry): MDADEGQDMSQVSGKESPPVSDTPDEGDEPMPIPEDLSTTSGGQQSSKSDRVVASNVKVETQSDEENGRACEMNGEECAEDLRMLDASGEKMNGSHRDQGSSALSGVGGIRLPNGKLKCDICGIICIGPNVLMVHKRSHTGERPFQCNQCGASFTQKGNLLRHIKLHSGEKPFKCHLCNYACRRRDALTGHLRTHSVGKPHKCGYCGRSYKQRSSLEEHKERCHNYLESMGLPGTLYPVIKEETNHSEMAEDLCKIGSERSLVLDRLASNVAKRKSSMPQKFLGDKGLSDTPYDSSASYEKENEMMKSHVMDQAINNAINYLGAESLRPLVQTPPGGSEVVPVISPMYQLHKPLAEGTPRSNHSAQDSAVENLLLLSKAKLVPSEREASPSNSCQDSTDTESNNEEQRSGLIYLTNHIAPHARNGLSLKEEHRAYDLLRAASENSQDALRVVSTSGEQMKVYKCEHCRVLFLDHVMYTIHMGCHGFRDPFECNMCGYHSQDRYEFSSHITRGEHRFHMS
T2 sequence (Q96SW2 whole entry): as the sequence (Q96SW2 whole entry) above
T2 sequence (Q16531 whole entry partner): as the sequence (Q16531 whole entry partner) above
T6 sequence (P15170 whole entry): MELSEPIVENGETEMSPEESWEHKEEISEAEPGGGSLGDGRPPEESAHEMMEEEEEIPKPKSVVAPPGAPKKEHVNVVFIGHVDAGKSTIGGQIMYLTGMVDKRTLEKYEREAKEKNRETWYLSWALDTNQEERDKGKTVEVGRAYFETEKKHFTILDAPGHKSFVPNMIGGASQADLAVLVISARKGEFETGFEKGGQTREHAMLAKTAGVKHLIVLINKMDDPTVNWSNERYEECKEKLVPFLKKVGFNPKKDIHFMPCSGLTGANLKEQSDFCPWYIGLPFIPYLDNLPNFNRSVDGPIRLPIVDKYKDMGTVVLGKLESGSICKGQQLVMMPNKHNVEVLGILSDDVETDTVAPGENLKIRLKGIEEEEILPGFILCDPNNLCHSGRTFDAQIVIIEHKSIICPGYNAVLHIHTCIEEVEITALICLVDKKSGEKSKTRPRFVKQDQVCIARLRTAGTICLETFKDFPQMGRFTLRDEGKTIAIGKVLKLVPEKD
T6 sequence (Q96SW2 whole entry): as the sequence (Q96SW2 whole entry) above
T6 sequence (Q16531 whole entry partner): as the sequence (Q16531 whole entry partner) above
T5 sequence (Q9UKS7 whole entry): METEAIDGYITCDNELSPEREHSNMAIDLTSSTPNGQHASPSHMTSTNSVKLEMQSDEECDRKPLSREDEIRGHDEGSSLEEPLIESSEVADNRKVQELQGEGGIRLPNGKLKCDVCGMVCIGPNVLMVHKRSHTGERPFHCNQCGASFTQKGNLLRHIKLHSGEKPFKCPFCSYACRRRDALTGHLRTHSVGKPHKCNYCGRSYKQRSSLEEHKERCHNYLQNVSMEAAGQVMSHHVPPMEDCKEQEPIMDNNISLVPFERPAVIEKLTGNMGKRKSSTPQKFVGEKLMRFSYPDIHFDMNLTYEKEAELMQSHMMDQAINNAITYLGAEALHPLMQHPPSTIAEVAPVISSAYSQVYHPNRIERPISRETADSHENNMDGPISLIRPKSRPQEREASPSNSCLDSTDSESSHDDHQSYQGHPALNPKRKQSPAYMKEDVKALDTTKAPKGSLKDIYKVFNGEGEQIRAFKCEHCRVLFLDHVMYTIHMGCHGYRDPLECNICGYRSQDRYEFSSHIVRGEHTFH
T5 sequence (Q96SW2 whole entry): as the sequence (Q96SW2 whole entry) above
T5 sequence (Q16531 whole entry partner): as the sequence (Q16531 whole entry partner) above

As to `O=C1CCN(N2Cc3cc(CN4CCN(c5ccc(Br)cc5)CC4)ccc3C2=O)C(=O)N1` [GT-06768, 1-(5-((4-(4-bromophenyl)piperazin-1-yl)methyl)-1-oxoisoindolin-2-yl)dihydropyrimidine-2,4(1H,3H)-dione], the “CK1α substrate protein remaining %” value on CK1α was “A (0% ≤ substrate protein remaining % ≤80%)”. In addition, the “IKZF1 substrate protein remaining %” value on IKZF1 is given as “B (80%< substrate protein remaining % ≤100%)”. The “IKZF3 substrate protein remaining %” value on IKZF3 is given as “A (0% ≤ substrate protein remaining % ≤80%)”. Also, on WEE1, the “WEE1 substrate protein remaining %” value is “A (0% ≤ substrate protein remaining % ≤80%)”. Besides, the “IKZF2 substrate protein remaining %” value at IKZF2 is listed as “B (80%< substrate protein remaining % ≤100%)”. Also, at GSPT1, the “GSPT1 substrate protein remaining %” value was “A (0% ≤ substrate protein remaining % ≤80%)”.

On to `O=C1CCN(N2C(=O)c3ccc(CN4CCC(c5cccc6c(F)cccc56)CC4)cc3C2=O)C(=O)N1` [GT-07686, 2-(2,4-dioxotetrahydropyrimidin-1(2H)-yl)-5-((4-(5-fluoronaphthalen-1-yl)piperidin-1-yl)methyl)isoindoline-1,3-dione], for which the “CK1α substrate protein remaining %” value at CK1α is reported as “B (80%< substrate protein remaining % ≤100%)”. Further, at IKZF1, the “IKZF1 substrate protein remaining %” value was “B (80%< substrate protein remaining % ≤100%)”. Moreover, the “IKZF3 substrate protein remaining %” value at IKZF3 was “B (80%< substrate protein remaining % ≤100%)”. Moreover, the “WEE1 substrate protein remaining %” value on WEE1 is recorded as “B (80%< substrate protein remaining % ≤100%)”. The “IKZF2 substrate protein remaining %” value on IKZF2 is “B (80%< substrate protein remaining % ≤100%)”. In addition, on GSPT1, the “GSPT1 substrate protein remaining %” value is given as “A (0% ≤ substrate protein remaining % ≤80%)”.

`O=C1CCN(N2Cc3cc(CN4CCN(c5nc(N6CCOCC6)nc6ccsc56)CC4)ccc3C2=O)C(=O)N1` [GT-08446, 1-(5-((4-(2-morpholinothieno[3,2-d]pyrimidin-4-yl)piperazin-1-yl)methyl)-1-oxoisoindolin-2-yl)dihydropyrimidine-2,4(1H,3H)-dione]: on CK1α, the “CK1α substrate protein remaining %” value is on record as “B (80%< substrate protein remaining % ≤100%)”. The “IKZF1 substrate protein remaining %” value on IKZF1 is reported as “B (80%< substrate protein remaining % ≤100%)”. For the same compound, the “IKZF3 substrate protein remaining %” value at IKZF3 is “A (0% ≤ substrate protein remaining % ≤80%)”. The “WEE1 substrate protein remaining %” value on WEE1 is listed as “B (80%< substrate protein remaining % ≤100%)”. In addition, at IKZF2, the “IKZF2 substrate protein remaining %” value is on record as “B (80%< substrate protein remaining % ≤100%)”. Also, the “GSPT1 substrate protein remaining %” value on GSPT1 is “A (0% ≤ substrate protein remaining % ≤80%)”.

For the compound `O=C1CCN(N2C(=O)c3ccc(CN4CCN(c5nsc6cc(F)ccc56)CC4)cc3C2=O)C(=O)N1` [GT-07526, 2-(2,4-dioxotetrahydropyrimidin-1(2H)-yl)-5-((4-(6-fluorobenzo[d]isothiazol-3-yl)piperazin-1-yl)methyl)isoindoline-1,3-dione], the “CK1α substrate protein remaining %” value at CK1α is reported as “A (0% ≤ substrate protein remaining % ≤80%)”. Also, the “IKZF1 substrate protein remaining %” value at IKZF1 is “B (80%< substrate protein remaining % ≤100%)”. Further, the “IKZF3 substrate protein remaining %” value on IKZF3 is reported as “B (80%< substrate protein remaining % ≤100%)”. For the same compound, the “WEE1 substrate protein remaining %” value on WEE1 is listed as “B (80%< substrate protein remaining % ≤100%)”. On IKZF2, the “IKZF2 substrate protein remaining %” value is reported as “B (80%< substrate protein remaining % ≤100%)”. For the same compound, the “GSPT1 substrate protein remaining %” value on GSPT1 was “A (0% ≤ substrate protein remaining % ≤80%)”.

Turning to `O=C1CCN(N2Cc3cc(CN4CCC(=C5CCOc6cc(F)ccc65)CC4)ccc3C2=O)C(=O)N1` [GT-07588, 1-(5-((4-(7-fluorochroman-4-ylidene)piperidin-1-yl)methyl)-1-oxoisoindolin-2-yl)dihydropyrimidine-2,4(1H,3H)-dione], the “CK1α substrate protein remaining %” value at CK1α is on record as “B (80%< substrate protein remaining % ≤100%)”. In addition, on IKZF1, the “IKZF1 substrate protein remaining %” value was “B (80%< substrate protein remaining % ≤100%)”. Also, the “IKZF3 substrate protein remaining %” value at IKZF3 is reported as “B (80%< substrate protein remaining % ≤100%)”. For the same compound, at WEE1, the “WEE1 substrate protein remaining %” value is given as “B (80%< substrate protein remaining % ≤100%)”. At IKZF2, the “IKZF2 substrate protein remaining %” value was “B (80%< substrate protein remaining % ≤100%)”. Moreover, on GSPT1, the “GSPT1 substrate protein remaining %” value was “A (0% ≤ substrate protein remaining % ≤80%)”.

On to `O=C1CCN(N2C(=O)c3ccc(CN4CC=C(c5ccnc6cc(F)ccc56)CC4)cc3C2=O)C(=O)N1` [GT-05261, 2-(2,4-dioxotetrahydropyrimidin-1(2H)-yl)-5-((4-(7-fluoroquinolin-4-yl)-3,6-dihydropyridin-1(2H)-yl)methyl)isoindoline-1,3-dione], for which, at CK1α, the “CK1α substrate protein remaining %” value is “B (80%< substrate protein remaining % ≤100%)”. The “IKZF1 substrate protein remaining %” value at IKZF1 is listed as “B (80%< substrate protein remaining % ≤100%)”. Moreover, the “IKZF3 substrate protein remaining %” value on IKZF3 was “B (80%< substrate protein remaining % ≤100%)”. The “WEE1 substrate protein remaining %” value at WEE1 is “B (80%< substrate protein remaining % ≤100%)”. For the same compound, the “IKZF2 substrate protein remaining %” value on IKZF2 is listed as “A (0% ≤ substrate protein remaining % ≤80%)”. Further, the “GSPT1 substrate protein remaining %” value at GSPT1 is recorded as “B (80%< substrate protein remaining % ≤100%)”.

For the compound `O=C1CCN(N2Cc3cc(CN4CC=C(c5ncc6ccsc6n5)CC4)ccc3C2=O)C(=O)N1` [GT-08438, 1-(1-oxo-5-((4-(thieno[2,3-d]pyrimidin-2-yl)-3,6-dihydropyridin-1(2H)-yl)methyl)isoindolin-2-yl)dihydropyrimidine-2,4(1H,3H)-dione], at CK1α, the “CK1α substrate protein remaining %” value is recorded as “B (80%< substrate protein remaining % ≤100%)”. Further, the “IKZF1 substrate protein remaining %” value at IKZF1 is given as “A (0% ≤ substrate protein remaining % ≤80%)”. Also, at IKZF3, the “IKZF3 substrate protein remaining %” value is “A (0% ≤ substrate protein remaining % ≤80%)”. Also, the “WEE1 substrate protein remaining %” value at WEE1 was “A (0% ≤ substrate protein remaining % ≤80%)”. The “IKZF2 substrate protein remaining %” value at IKZF2 is “B (80%< substrate protein remaining % ≤100%)”. In addition, the “GSPT1 substrate protein remaining %” value at GSPT1 is “A (0% ≤ substrate protein remaining % ≤80%)”.

For `O=C1CCN(N2Cc3cc(CN4CCC(N5C(=O)COc6cc(F)ccc65)CC4)ccc3C2=O)C(=O)N1` [GT-07586, 1-(5-((4-(7-fluoro-3-oxo-2,3-dihydro-4H-benzo[b][1,4]oxazin-4-yl)piperidin-1-yl)methyl)-1-oxoisoindolin-2-yl)dihydropyrimidine-2,4(1H,3H)-dione], the “CK1α substrate protein remaining %” value on CK1α is recorded as “B (80%< substrate protein remaining % ≤100%)”. For the same compound, on IKZF1, the “IKZF1 substrate protein remaining %” value is recorded as “A (0% ≤ substrate protein remaining % ≤80%)”. For the same compound, the “IKZF3 substrate protein remaining %” value at IKZF3 is listed as “B (80%< substrate protein remaining % ≤100%)”. Moreover, the “WEE1 substrate protein remaining %” value on WEE1 is “A (0% ≤ substrate protein remaining % ≤80%)”. For the same compound, the “IKZF2 substrate protein remaining %” value at IKZF2 was “B (80%< substrate protein remaining % ≤100%)”. The “GSPT1 substrate protein remaining %” value on GSPT1 is reported as “A (0% ≤ substrate protein remaining % ≤80%)”.

`O=C1CCN(N2C(=O)c3ccc(CN4CCC(c5ccoc5)CC4)cc3C2=O)C(=O)N1` [GT-07422, 2-(2,4-dioxotetrahydropyrimidin-1(2H)-yl)-5-((4-(furan-3-yl)piperidin-1-yl)methyl)isoindoline-1,3-dione]: the “CK1α substrate protein remaining %” value on CK1α was “A (0% ≤ substrate protein remaining % ≤80%)”. The “IKZF1 substrate protein remaining %” value at IKZF1 is listed as “B (80%< substrate protein remaining % ≤100%)”. The “IKZF3 substrate protein remaining %” value on IKZF3 is recorded as “B (80%< substrate protein remaining % ≤100%)”. For the same compound, the “WEE1 substrate protein remaining %” value at WEE1 is on record as “B (80%< substrate protein remaining % ≤100%)”. The “IKZF2 substrate protein remaining %” value on IKZF2 is “B (80%< substrate protein remaining % ≤100%)”. The “GSPT1 substrate protein remaining %” value at GSPT1 is “A (0% ≤ substrate protein remaining % ≤80%)”.
